Holding throughout (assay): Kinase Assay
Common to all, as to conditions: pH 7.5; 30 °C

Test [1] has as its target Cyclin-dependent kinase 1 (Homo sapiens, UniProt P06493).
From the text: (§1) Kinase activity assay using GSK-3beta, CDK1/cyclin B and CDK5/p25.
Test [2] concerns the target Cyclin-dependent kinase 5 (Homo sapiens, UniProt Q00535).
From the text: as §1
Test [3] deals with Glycogen synthase kinase-3 beta (Homo sapiens, UniProt P49841).
From the text: as §1

Drawing on BindingDB's records for doi:10.1002/cbic.200400099 (Technische UniversitÄT Braunschweig, 2005), this text covers IC50 for five compounds.

Chain of Cyclin-dependent kinase 1 (P06493 whole entry): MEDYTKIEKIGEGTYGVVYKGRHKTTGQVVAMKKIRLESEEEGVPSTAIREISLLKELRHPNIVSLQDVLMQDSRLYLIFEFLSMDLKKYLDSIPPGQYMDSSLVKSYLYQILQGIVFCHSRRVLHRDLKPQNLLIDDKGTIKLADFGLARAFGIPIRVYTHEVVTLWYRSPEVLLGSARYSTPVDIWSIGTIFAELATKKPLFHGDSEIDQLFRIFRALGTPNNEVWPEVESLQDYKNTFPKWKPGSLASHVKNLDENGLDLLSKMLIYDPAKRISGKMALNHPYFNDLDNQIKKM
Chain of Cyclin-dependent kinase 5 (Q00535 whole entry): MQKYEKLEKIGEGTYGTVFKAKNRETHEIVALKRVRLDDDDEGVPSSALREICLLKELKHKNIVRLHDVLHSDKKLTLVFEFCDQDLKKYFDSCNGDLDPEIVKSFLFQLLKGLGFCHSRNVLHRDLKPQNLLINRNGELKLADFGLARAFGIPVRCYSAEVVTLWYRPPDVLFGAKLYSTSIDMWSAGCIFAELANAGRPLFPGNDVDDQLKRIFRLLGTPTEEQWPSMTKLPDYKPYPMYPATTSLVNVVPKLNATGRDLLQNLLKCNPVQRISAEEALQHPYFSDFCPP
Chain of Glycogen synthase kinase-3 beta (P49841 whole entry): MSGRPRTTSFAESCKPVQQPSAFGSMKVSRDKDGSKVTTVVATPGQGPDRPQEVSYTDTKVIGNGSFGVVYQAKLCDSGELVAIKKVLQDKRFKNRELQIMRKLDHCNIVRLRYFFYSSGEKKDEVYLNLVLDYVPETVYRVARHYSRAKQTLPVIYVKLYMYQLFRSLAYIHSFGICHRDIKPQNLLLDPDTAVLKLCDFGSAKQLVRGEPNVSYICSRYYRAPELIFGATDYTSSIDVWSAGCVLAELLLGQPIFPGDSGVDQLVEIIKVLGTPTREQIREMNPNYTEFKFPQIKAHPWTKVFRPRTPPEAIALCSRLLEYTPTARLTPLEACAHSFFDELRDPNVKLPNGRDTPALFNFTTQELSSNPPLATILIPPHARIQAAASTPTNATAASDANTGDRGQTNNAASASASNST

`N#CCCc1ccc2c(c1)-c1[nH]c3ccc([N+](=O)[O-])cc3c1CC(=O)N2`: the IC50 (usually the concentration at which inhibition is half-maximal) worked out at 0.23 nM in test [1], 30 nM in test [2] and 0.8 nM in test [3].

In the case of `NCCCCc1ccc2c(c1)-c1[nH]c3ccc([N+](=O)[O-])cc3c1CC(=O)N2` [Alsterpaullone derivative, 3], the IC50 in test [1] is 80 nM; in test [2] it was 70 nM; in test [3], 6 nM.

As for `NCCCc1ccc2c(c1)-c1[nH]c3ccc([N+](=O)[O-])cc3c1CC(=O)N2` [Alsterpaullone derivative, 4], the half-maximal inhibitory concentration (IC50) was 27 nM in test [1], 23 nM in test [2] and 2.5 nM in test [3].

With `O=C(O)CCc1ccc2c(c1)-c1[nH]c3ccc([N+](=O)[O-])cc3c1CC(=O)N2` [Alsterpaullone derivative, 5], the IC50 in test [1] stood at 25 nM; in test [2], 80 nM; in test [3], 6.5 nM.

On to `COC(=O)CCc1ccc2c(c1)-c1[nH]c3ccc([N+](=O)[O-])cc3c1CC(=O)N2` [Alsterpaullone derivative, 6], for which the figures for the half-maximal inhibitory concentration (IC50) in test [1], in test [2] and in test [3] were 100 nM, 250 nM and 34 nM, respectively.
